Measured values from patent US7812035B2, “4-substituted piperidines, and methods of use thereof” (Sepracor Inc., priority 2001, dated 2010).
Like-named read-outs stand apart in the source and are kept apart here.

What was measured:
Format in all cases: cell-based
[1] = target: norepinephrine transporter (Homo sapiens, UniProt P23975); test: NE uptake inhibition (monoamine transporter antagonism, methods of Galli et al); conditions: read-out: NE uptake (% inhibition @1 μM)
serotonin transporter = serotonin transporter (UniProt P31645); test: 5-HT uptake inhibition (monoamine transporter antagonism, methods of Gu et al); conditions: 1 μM compound
dopamine transporter = test: DA uptake inhibition (monoamine transporter antagonism, methods of Gu et al); conditions: 1 μM compound

Sequence of norepinephrine transporter (P23975 whole entry): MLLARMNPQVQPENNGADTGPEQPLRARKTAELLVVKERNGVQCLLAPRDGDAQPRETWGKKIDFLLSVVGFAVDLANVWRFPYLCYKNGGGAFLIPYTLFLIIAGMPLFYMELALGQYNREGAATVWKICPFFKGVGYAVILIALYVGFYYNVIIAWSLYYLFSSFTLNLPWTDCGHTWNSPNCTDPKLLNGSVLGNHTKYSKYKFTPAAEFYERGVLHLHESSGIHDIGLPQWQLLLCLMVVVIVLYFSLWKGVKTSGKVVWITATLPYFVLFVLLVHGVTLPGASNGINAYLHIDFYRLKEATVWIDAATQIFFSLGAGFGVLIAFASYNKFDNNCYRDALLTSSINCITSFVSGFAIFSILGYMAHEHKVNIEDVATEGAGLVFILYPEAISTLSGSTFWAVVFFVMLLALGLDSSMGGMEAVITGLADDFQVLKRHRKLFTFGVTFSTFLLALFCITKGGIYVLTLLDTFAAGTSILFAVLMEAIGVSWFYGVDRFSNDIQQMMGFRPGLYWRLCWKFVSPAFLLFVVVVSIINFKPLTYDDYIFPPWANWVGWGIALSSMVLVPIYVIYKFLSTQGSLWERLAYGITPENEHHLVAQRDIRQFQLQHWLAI

## OC1CCN(CC2(c3ccc(Cl)cc3)CCC2)CC1 [Compound 2, 1-[1-(4-Chloro-phenyl)-cyclobutylmethyl]-piperidin-4-ol]
[1]
  inhibition at 1 µM: 65%
Serotonin transporter
  5-HT uptake (% inhibition @1 μM): 36%
Dopamine transporter
  DA uptake (% inhibition @1 μM): 88%

## FC(F)(F)c1cc(COC2CCN(CC3(c4ccc(Cl)cc4)CCC3)CC2)cc(C(F)(F)F)c1 [Compound 5]
[1]; 1 μM compound
  inhibition at 1 µM: 85%
Serotonin transporter
  5-HT uptake (% inhibition @1 μM): 14%
Dopamine transporter
  DA uptake (% inhibition @1 μM): 61%

## FC(F)(F)c1ccc(COC2CCN(CC3(c4ccc(Cl)cc4)CCC3)CC2)cc1 [Compound 6, [1-(4-chloro-phenyl)-cyclobutylmethyl]-4-(4-trifluoromethyl-benzyloxy)-piperidine]
[1]
  inhibition at 1 µM: 78%
Serotonin transporter
  5-HT uptake (% inhibition @1 μM): 9%
Dopamine transporter
  DA uptake (% inhibition @1 μM): 85%

## FC(F)(F)c1ccc(OC2CCN(CC3(c4ccc(Cl)cc4)CCC3)CC2)cc1 [Compound 8, 1-[1-(4-chloro-phenyl)-cyclobutylmethyl]-4-(4-trifluoromethal-phenoxy)-piperidine]
[1]
  inhibition at 1 µM: 38%
Serotonin transporter
  5-HT uptake (% inhibition @1 μM): 56%
Dopamine transporter
  DA uptake (% inhibition @1 μM): 25%

## OCC1CCN(CC2(c3ccc(Cl)cc3)CCC2)CC1 [Compound 10, {1-[1-(4-chloro-phenyl)-cyclobuylmethyl]-piperidin-4-yl}-methanol]
[1]
  inhibition at 1 µM: 62%
Serotonin transporter
  5-HT uptake (% inhibition @1 μM): 21%
Dopamine transporter
  DA uptake (% inhibition @1 μM): 70%

## FC(F)(F)c1ccc(COCC2CCN(CC3(c4ccc(Cl)cc4)CCC3)CC2)cc1 [Compound 11]
[1]; 1 μM compound
  inhibition at 1 µM: 97%
Serotonin transporter
  5-HT uptake (% inhibition @1 μM): 87%
Dopamine transporter
  DA uptake (% inhibition @1 μM): 97%

## FC(F)(F)c1ccc(OCC2CCN(CC3(c4ccc(Cl)cc4)CCC3)CC2)cc1 [Compound 13, 1-[1-(4-Chloro-Phenyl)-Cyclobutylmethyl]-4-(4-Trifluoromethyl-Phenoxymethyl)-Piperidine]
[1]
  inhibition at 1 µM: 97%
Serotonin transporter
  5-HT uptake (% inhibition @1 μM): 83%
Dopamine transporter
  DA uptake (% inhibition @1 μM): 94%
